# Experimental data from patent publication US20160250285A1, “NEUROPROTECTIVE PEPTIDES” (priority 2013, published 2016).
# “Also recorded” adds a separate entry of the source.
# What was measured:
# [1] = tested on: primary cortical neuronal cultures; experiment: In vitro ischemia / oxygen-glucose deprivation (OGD) model, neurons; format: cell-based, rat; conditions: for neuroprotection when added for 15 minutes after OGD: FIGS. 31, 20, 22, 1 μM and 5 μM in FIG. 31; for neuroprotection when added post-in vitro ischemia/OGD: added after anaerobic incubation until experiment end (FIGS. 3b, 16, 17)
# Procedure: Establishment of cortical cultures was as previously described (Meloni et al. 2001). Briefly, cortical tissue from E18-E19 Sprague-Dawley rats was dissociated in Dulbecco's modified Eagle medium (DMEM; Invitrogen, Australia) supplemented with 1.3 mM L-cysteine, 0.9 mM NaHCOa, 10 units/ml papain (Sigma, USA) and 50 units/ml DNase (Sigma) and washed in cold DMEM/10% horse serum. Neurons were resuspended in Neurobasal (Invitrogen) containing 2% B27 supplement (B27; Invitrogen). Before seeding, 96-well sized glass wells (6 mm diameter, ProTech, Australia) or 96-well plastic plates (ProSciTech, Australia) were coated with poly-D-lysine overnight (50 ml/well: 50 mg/mL; 70-150 K, Sigma). Excess poly-D-lysine solution was then removed and replaced with Neurobasal (containing 2% B27; 4% fetal bovine serum; 1% horse serum; 62.5 mM glutamate; 25 mM 2-mercaptoethanol; and 30 mg/mL streptomycin and 30 mg/mL penicillin). Neurons were plated to obtain ≈10,000 viable neurons for each well on day in vitro 11-12. Neuronal cultures were maintained in a CO2 incubator (5% CO2, 95% air balance, 98% humidity) at 37° C. On day in vitro 4 one third of the culture medium was removed and replaced with fresh Neurobasal/2% B27 containing the mitotic inhibitor, cytosine arabinofuraNOside (1 mM final concentration; Sigma). On day in vitro 8 one half of the culture medium was replaced with Neurobasal/2% B27. Cultures were used on day in vitro 11 or 12 after which time they routinely consist of >97% neurons and 1-3% astrocytes (Meloni et al. 2001).
# The in vitro ischemia model used for primary cortical neuronal cultures was performed as previously described (Meloni et at 2011) Briefly, culture media was removed from wells (glass 96-well plate format) and washed with 315 μl of glucose free balanced salt solution (BSS; mM: 116 NaCl, 5.4 KCl, 1.8 CaCl2, 0.8 MgSO4, 1 NaH2PO4; pH 6.9) before the addition of 60 μl BSS containing cell penetrating or control peptides (see Table 1). A non-peptide positive control consisting of the glutamate receptor blockers (5 μM MK801/5 μM 6-cyano-7-nitroquinoxaline: MK801/CNQX) was also included. In vitro ischemia was initiated by placing wells in an anaerobic incubator (Don Whitely Scientific, England; atmosphere of 5% CO2, 10% H2 and 85% argon, 98% humidity) at 37° C. for 55 minutes. Upon removal from the anaerobic incubator, 60 μl of Neurobasal/2% N2 supplement was added to the wells and cultures incubated for a further 24 hours at 37° C. in the CO2 incubator. Control cultures received the same BSS wash procedures and media additions as ischemic treated cultures before incubation at 37° C. in the CO2 incubator.
# Control cultures underwent the same BSS wash procedures and media additions as OGD treated cultures.
# Twenty-four hours after insult, neuronal cultures were examined by light microscopy for qualitative assessment of neuronal cell viability. Neuronal viability was quantitatively measured by 3-(4,5,dimethyliazol-2-yl)-5-(3-carboxymethoxy-phenyl)-2-(4-sulfophenyl)-2H-tetrazolium salt (MTS) assay (Promega, Australia). The MTS assay measures the cellular conversion of the tetrazolium salt to a water-soluble brown formazan salt, which is detected spectrophotometrically at 490 nm. MTS absorbance data were converted to reflect proportional cell viability relative to both the untreated and treated controls, with the untreated control taken as 100% viability, and presented as mean±SEM. […] Viability data was analysed by ANOVA, followed by post-hoc Fischer's PLSD test, with P<0.05 values considered statistically significant. Four- to six wells were used in all assays.
# [2] = tested on: permanent middle cerebral artery occlusion (MCAO) stroke model; experiment: Rat permanent middle cerebral artery occlusion (MCAO) stroke model; format: in vivo; conditions: for neuroprotective activity in vivo: 1 μmol/kg intravenously 30 min post-MCAO
# Procedure: Administration of peptide (DR9: rrrrrrrrr-NH2; R12, R15, R18, protamine sulphate; protamine) or vehicle (saline: 0.9% NaCl) treatment solution was performed at 30 min post-MCAO. The peptide treatment comprised DR9 in saline (600 μl) to provide an intravenous loading dose of 1 μmol/kg or 1000 nmol/kg given over 5-6 min via the right jugular vein.
# This study was approved by the Animal Ethics Committee of the University of Western Australia. Male Sprague Dawley rats weighing 270 g to 350 g were kept under controlled housing conditions with 12 hour light-dark cycle with free access to food and water. Experimental animals were fasted overnight and subjected to permanent middle cerebral artery occlusion (MCAO) as follows.
# Anaesthesia was induced with 4% isoflurane and a 2:1 mix of N2O and O2 via mask. Anaesthesia was maintained at 1.7-2% isoflurane. Cerebral blood flow (CBF) was monitored continuously using laser Doppler flowmetry (Blood FlowMeter, AD Instruments, Sydney, Australia). The probe was located 1 mm caudal and 4 mm lateral (right) to the bregma. A cannula was inserted in the right femoral artery to continuously monitor blood pressure and to provide samples for blood glucose and blood gas readings. Blood glucose was measured using a glucometer (MediSense Products, Abbott Laboratories, Bedford, Mass., USA) and blood gases were measured using a blood gas analyser (ABL5, Radiometer, Copenhagen, Denmark). Blood pressure was maintained at 80-100 mmHg. During surgery, rectal temperature was maintained at 37±0.5° C. and warming applied with a fan heater when necessary. For intravenous infusions, a length of PVC line primed with heparinised saline was tied in place in the right jugular vein, then externalised through a dorsal mid-scapular incision to a tether/swivel system (Instech Laboratories, Philadelphia, USA) designed to permit free movement.
# The right common carotid artery (CCA) was exposed via a ventral neck incision. […] The isolated section of the ECA was ligated and cauterised to create a stump. The carotid body was removed and the pterygopalatine artery was ligated. A 4-0 nylon monofilament with a 0.39 mm diameter silicone tip (Doccol, Redlands, Calif., USA) was inserted through the ECA stump into the CCA and advanced rostrally into the internal carotid artery (ICA) until the laser Doppler flowmetry recorded a >30% decrease from baseline of cerebral blood flow. The monofilament was secured in two places (at the base of the ECA stump and on the ICA) for the remainder of the experiment. Animals were given post-operative analgesia consisting of pethidine (3 mg/kg intramuscular) and bupivacaine (1.5 mg/kg subcutaneously) at head and leg incision sites.
# Post-surgery animals were allowed to recover in a climate-controlled chamber and their core body temperature monitored and maintained at 37±0.5° C. by a cooling/heating fan when required for 3-4 hours.
# Animals were sacrificed 24 hours post-MCAO with intra-peritoneal injections of sodium pentobarbitone (900 mg/kg). […] Slices were scanned and images were analysed by an operator blind to treatment status using ImageJ 3rd edition (NIH, USA). The total infarct volume was determined by adding the areas of infarcted tissue on both sides of the 2 mm sections. These measured areas were multiplied by half slice thickness (1 mm), and corrected for cerebral oedema by multiplying the ratio of affected to normal hemisphere areas. […]
Molecule,"efficacy at higher concentrations, added post-in vitro ischemia ([1]; FIG. 3b)","neuroprotection, peptide for 10 minutes, 1 to 3 hours prior to OGD ([1]; FIG. 32)",neuroprotection when added for 15 minutes after OGD [1],neuroprotection when added post-in vitro ischemia/OGD [1],"reduction of infarct volume (brain damage) ([2]; 1 μmol/kg IV 30 min post-MCAO, infarct volume 24 h post-MCAO (FIGS. 5, 27))",neuroprotective activity in vivo [2],"IC50 ([1]; Table 3, from FIG. 3a, peptide during ischemia and at 50% dose after, viability 24 h, MTS, read-out: IC50: In vitro ischemia model) [µM]"
H-RRRRRRRRRRRRRRRRRR-OH [Peptide R18],reduced efficacy,effective,Neuroprotection is displayed,displayed neuroprotective effects; also recorded: effective,approximately 20%,possessed neuroprotective activity in vivo,
N=C(N)NCCC[C@H](NC(=O)[C@H](CCCNC(=N)N)NC(=O)[C@H](CCCNC(=N)N)NC(=O)[C@H](CCCNC(=N)N)NC(=O)[C@H](CCCNC(=N)N)NC(=O)[C@H](CCCNC(=N)N)NC(=O)[C@H](CCCNC(=N)N)NC(=O)[C@H](CCCNC(=N)N)NC(=O)[C@@H](N)CCCNC(=N)N)C(=O)O [Peptide R9],,,not,displayed neuroprotective effects; also recorded: effective,,possessed neuroprotective activity in vivo,6
